Measured values published in US12616204B2, “Use of cationic porphyrins as selective herbicide” (UNIVERSITE DE LIMOGES, priority 2021, dated 2026).
“Also recorded” adds a separate entry of the source.

Assays:
[1] = tested on: fishing worms (maggots); experiment: Non-toxicity to fishing worms (maggots), viability after spraying; assay type: in vivo; conditions: for toxicity to fishing worms (maggots): summary statement
Protocol: The maggots were placed in Petri dishes under a photoperiod (16 h) or under dark conditions in a phytotron (24° C.) for 24 h. […] The percentage viability was determined after 24 h.

[2] = tested on: tomato seedlings (Solanum lycopersicum); conditions: 16-hour photoperiod, Guillaumot et al. 2016; cited from earlier work
[3] = tested on: Barley (Hordeum sativum); experiment: In vitro cultivation on Zn-TMPyP-rich medium, barley; assay type: in vivo; conditions: 3.5 μM Zn-TMPyP-rich medium
Protocol: (§1) The sterilization of the seeds is carried out according to the following protocol. Surface sterilization is first performed with 70% (v/v) ethanol for 2 minutes at ambient temperature. The ethanol is removed and the seeds are immersed in 20% (v/v) sodium hypochlorite for 15-20 minutes and then thoroughly rinsed with sterile water. The barley caryopses are left in the water for at least one hour before cultivation.
(§2) The germination medium for all of the seeds is Gamborg's synthetic medium, also referred to as B5, (Duchefa Biochemie, Haarlem, the Netherlands), supplemented with 2% sucrose (w/v) and solidified with 0.8% agar (Difco, Dallas, USA). The pH is adjusted to 5.8 with 1 M sodium hydroxide before autoclaving. After autoclaving (120° C., 20 minutes, 1 bar) and cooling of the medium in Petri dishes and/or jars, porphyrin is added at the desired concentration. After sterilization, the seeds are deposited on the solidified B5 medium containing or not containing the porphyrin, under a laminar flow hood. The Petri dishes and jars are placed in culture chambers (16 h photoperiod, 22° C., photon flux density ˜100 μmol·m^−2·s^−1 generated by cool daylight lamps (OSRAM Lumilux 24W)). The jars are used for the transfer of the seedlings and allow them to grow more appropriately. […]

[4] = tested on: Tomato Solanum lycopersicum var Marmande; experiment: In vitro cultivation on Zn-TMPyP-rich medium, tomato; assay type: in vivo; conditions: 3.5 μM Zn-TMPyP-rich medium, after 22 days, compared with control
Protocol: as §1, §2

[5] = tested on: Potato (Solanum tuberosum) cultivar: Coquine; experiment: In vitro cultivation on Zn-TMPyP-treated medium, potato explants; assay type: in vivo; conditions: treated medium (3.5 μM Zn-TMPyP) compared to control
Protocol: (§3) Explants are propagated in a sterile manner from 1-month old seedlings for potato and two-month old seedlings for grapevines. The potato explants are propagated on a Murashige and Skoog synthetic medium supplemented with 2% sucrose and myo-inositol ((100 mg/L), pH 5.8. The grapevine explants are cultivated on ½ Chee and Pool medium supplemented with 2% sucrose, pH 5.9. The media are solidified with 0.8% Sobigel. Both media are supplied by Duchefa Biochemie, Haarlem, the Netherlands. The media are autoclaved as described above for the B5 medium. The grapevine explants are placed in a culture chamber at 25° C. and those of potato at 23° C., the same photoperiod and light intensity as for the seed germinations.

[6] = tested on: Tobacco (Nicotiana benthamiana); experiment: In vitro cultivation on Zn-TMPyP-rich medium, tobacco; assay type: in vivo; conditions: 3.5 μM Zn-TMPyP-rich medium, one-and-a-half months of cultivation
Protocol: as §1
(§4) The germination medium for all of the seeds is Gamborg's synthetic medium, also referred to as B5, (Duchefa Biochemie, Haarlem, the Netherlands), supplemented with 2% sucrose (w/v) and solidified with 0.8% agar (Difco, Dallas, USA). The pH is adjusted to 5.8 with 1 M sodium hydroxide before autoclaving. After autoclaving (120° C., 20 minutes, 1 bar) and cooling of the medium in Petri dishes and/or jars, porphyrin is added at the desired concentration. After sterilization, the seeds are deposited on the solidified B5 medium containing or not containing the porphyrin, under a laminar flow hood. The Petri dishes and jars are placed in culture chambers (16 h photoperiod, 22° C., photon flux density ˜100 μmol·m^−2·s^−1 generated by cool daylight lamps (OSRAM Lumilux 24W)). The jars are used for the transfer of the seedlings and allow them to grow more appropriately.

[7] = tested on: Grapevine (Vitis vinifera) cultivar: Sauvignon (clone 379); experiment: In vitro cultivation on Zn-TMPyP-rich medium, grapevine explants; assay type: in vivo; conditions: 3.5 μM Zn-TMPyP-rich medium, two months of cultivation
Protocol: as §3

[8] = tested on: Common nettle Urtica dioica; experiment: In vitro cultivation on Zn-TMPyP-treated medium, nettle; assay type: in vivo; conditions: medium with Zn-TMPyP 3.5 μM, after 18 days
Protocol: as §1, §4

[9] = tested on: Arabidopsis thaliana ws ecotype; experiment: In vitro cultivation on Zn-TMPyP-treated medium, Arabidopsis; assay type: in vivo; conditions: medium with Zn-TMPyP 3.5 μM, after 1 month
Protocol: as §1, §4

[10] = tested on: Poppy (Papaver rhoeas); experiment: In vitro cultivation on Zn-TMPyP-treated medium, poppy; assay type: in vivo; conditions: 3.5 μM Zn-TMPyP, after 6 weeks
Protocol: as §1, §4

[11] = tested on: antioxidant machinery (total thiols, catalase, guaiacol peroxidase) of tomato seedlings; experiment: Total thiols, catalase and guaiacol peroxidase in tomato seedlings cultivated in vitro; assay type: in vivo, Solanum lycopersicum; conditions: tomato seedlings cultivated in vitro on 3.5 μM Zn-TMPyP-rich medium, 1 month
[12] = tested on: adventitious plants (goosefoot, proso millet, rye-grass, dock, black nightshade, dandelion, chickweed); experiment: Example 4 greenhouse foliar spraying test, adventitious plants; assay type: in vivo; conditions: after 6 weeks
Protocol: (§5) Additional tests in a greenhouse were carried out. […] The treatments started at the cotyledon stage. The harvesting was carried out 6 weeks after germination (and 10 weeks for barley).

[13] = tested on: plants of interest (tomato, barley, wheat, spinach, turnip, corn, onion, sunflower); experiment: Example 4 greenhouse foliar spraying test, plants of interest; assay type: in vivo; conditions: 5 foliar sprayings 48 h apart, regardless of concentration (50, 75, 100 μM), after 6 weeks (10 for barley)
Protocol: as §5

[14] = tested on: Spinach (Spinacia oleracea); experiment: Example 4 greenhouse foliar spraying test, spinach; assay type: in vivo; conditions: 5 foliar sprayings 48 h apart, 50, 75, 100 μM, after 6 weeks
Protocol: as §5

[15] = tested on: Poppy (Papaver rhoeas); experiment: Greenhouse foliar spraying test, poppy; conditions: foliar spraying 50 μM Zn-TMPyP
Protocol: (§6) The various seeds are cultivated in a greenhouse in commercial compost (universal compost, Fertiligene). The seeds were sown in the greenhouse under controlled temperature and humidity conditions (the temperature varies between 15° C. and 30° C. depending on the season, and the relative humidity varies from 50 to 70%).
(§7) Two spot treatments (about 10 sprays each) spaced 48 h apart were carried out one week after germination. The first treatment was carried out when the seedlings were in the cotyledon stage, the second when the seedlings were in the first-leaf stage.
(§8) The seedlings were monitored every 48 h. The control medium was sprayed with water at the same frequency.

[16] = tested on: Barley (Hordeum sativum); experiment: Greenhouse foliar spraying test, barley; conditions: foliar spraying 50 μM Zn-TMPyP, two treatments 48 h apart, after one month and two months
Protocol: as §6, §7, §8

[17] = tested on: Tomato Solanum lycopersicum var Marmande; experiment: Greenhouse foliar spraying test, tomato; conditions: foliar spraying 50 μM Zn-TMPyP, two treatments 48 h apart, after one month and two months
Protocol: as §6, §7, §8

[18] = tested on: Millet Echinochloa frumentacea; experiment: Greenhouse foliar spraying test, millet; conditions: foliar spraying 50 μM Zn-TMPyP, two treatments 48 h apart, after one month and two months
Protocol: as §6, §7, §8

[19] = Photostability/photodegradation test in water (Soret band, UV-visible spectrometry); conditions: solution without surfactant, photoperiod 16 h light/8 h dark
Description: Monitoring the intensity of the Soret band as a function of the irradiation time makes it possible to calculate the percentage of degraded porphyrins.

[20] = tested on: antioxidant enzymes and molecules (total thiols, catalase, guaiacol peroxidase) of tomato seedlings; experiment: Total thiols, catalase and guaiacol peroxidase in greenhouse tomato seedlings after foliar application; conditions: foliar application of 50 μM Zn-TMPyP, two months
Protocol: Seedlings (roots and aerial parts separated before freezing) are ground in liquid nitrogen. The powder is transferred into an Eppendorf tube and weighed (between 200 and 100 mg per extraction). The extract is acidified with 0.2 N vortexed HCl and centrifuged (13 000 g 10 min 4° C.). 500 μL of the supernatant is neutralized with 400 μL of NaOH (0.2 N) and 50 μL of Na2HPO4. Then, 700 μL of 0.12 M Na2HPO4, 6 mM EDTA and 6 mM DTNB are added to 200 μL of the neutralized solution. After establishing a glutathione range, the total thiols contained in the samples are determined by UV-vis spectrometry at 412 nm and related to the fresh weight.
Seedlings (roots and aerial parts separated before freezing) are ground in liquid nitrogen. […]
Catalase activity is quantifiable by measuring the disappearance of H2O2 by disproportionation into H2O and O2. […] The kinetics of the disappearance of H2O2 are measured for 200 seconds every 20 seconds at 240 nm. The activity is calculated using the molar extinction coefficient of H2O2 which is 43.6 mM^−1·cm^−1.
Its activity is measured by the oxidation of guaiacol in the presence of H2O2. […] The kinetics of the appearance of the oxidized guaiacol are measured for 120 seconds every 10 seconds at 436 nm. The activity is calculated using the molar extinction coefficient of H2O2 which is 25.5 mM^−1·cm^−1.

## tetra(N-methylpyridyl)porphyrin tetrachloride [TMPyP]
[1]
  toxicity to fishing worms (maggots): non-toxicity
[2]
  tomato seedling growth in vitro: significantly altered

## zinc tetra(N-methylpyridyl)porphyrin tetrachloride [Zn-TMPyP]
[3]
  appearance of barley leaves: yellowing followed by wilting
[3]; after one month of cultivation
  growth of the barley: adversely impacted
[4]
  development of tomato: significantly inhibited
[5]
  growth of potato at the stem and roots: slight growth retardation
[6]
  development of tobacco seedlings: considerable inhibition
[7]
  development of grapevine seedlings: considerable inhibition
[8]
  growth of nettle: very significant inhibition
[9]
  growth of Arabidopsis: very significant inhibition
[10]
  response of poppy seedlings: remarkable adverse impact and inhibition
[11]
  antioxidant machinery (total thiols, catalase, guaiacol peroxidase): significantly inhibited
[1]; spraying of 50 μM Zn-TMPyP, 24 h, in the presence and in the absence of light
  effect on viability of maggots (fishing worms): harmlessness
[1]
  toxicity to fishing worms (maggots): non-toxicity
[12]; 5 foliar sprayings 48 h apart, C1=50, C2=75, C3=100 μM, dose-dependent or at a specific dose
  growth of the adventitious plants: drastically adversely impacts
[12]; 5 foliar sprayings, certain concentrations (of 50, 75, 100 μM)
  destruction of the adventitious plants: completely destroy
[13]
  growth of the plants of interest: grow perfectly
[14]
  growth of spinach: slightly affected
[2]
  tomato seedling growth in vitro: significantly altered
[15]; adventitious plants (poppy, millet)
  time to first symptoms after the first treatment: 24 h
[15]; first 10 sprayings
  time until the poppy is destroyed after the first treatment: 48 h
[15]; two treatments 48 h apart, after one month and two months
  herbicidal effect on poppy: completely dead; also recorded: completely destroyed
[16]
  growth of barley (plant of interest): grow perfectly
[17]
  growth of tomato (plant of interest): grow perfectly
[18]
  herbicidal effect on millet: completely dead
[19]
  days of photoperiod after which the solution disappears: 29 days
[20]
  antioxidant enzymes and molecules: remain constant
  thiols in the roots: increase
